Reference: the supplement of paper PMC10307832

Experiments:
Experiment in all cases: relative viability (nuclei count vs DMSO), 5 days (fraction); higher = more cells survive
Erlotinib + Pemetrexed = compound: C#Cc1cccc(Nc2ncnc3cc(OCCOC)c(OCCOC)cc23)c1 [Erlotinib] + Nc1nc2[nH]cc(CCc3ccc(C(=O)N[C@@H](CCC(=O)O)C(=O)O)cc3)c2c(=O)[nH]1 [Pemetrexed] (partner 0.2 µM)
In short: (§1)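 Lung cancer cell lines were pin-tool dosed in 1536-well plates on the day after seeding, with either a lone drug or a fixed anchor-drug dose plus five library-drug doses (not always all listed) in √10 steps. Nuclei were counted on 4× images after 5 days. Relative viability is the ratio of treated-well to vehicle-well nuclei counts, with each value a median of duplicate plates.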

AT9283 + Bortezomib = compound: O=C(Nc1c[nH]nc1-c1nc2ccc(CN3CCOCC3)cc2[nH]1)NC1CC1 [AT9283] + CC(C)C[C@H](NC(=O)[C@H](Cc1ccccc1)NC(=O)c1cnccn1)B(O)O [Bortezomib] (partner 0.002 µM)
In short: as §1

Erlotinib + Foretinib = compound: C#Cc1cccc(Nc2ncnc3cc(OCCOC)c(OCCOC)cc23)c1 [Erlotinib] + COc1cc2c(Oc3ccc(NC(=O)C4(C(=O)Nc5ccc(F)cc5)CC4)cc3F)ccnc2cc1OCCCN1CCOCC1 [Foretinib] (partner 0.25 µM)
In short: as §1

AT9283 + Tozasertib = compound: O=C(Nc1c[nH]nc1-c1nc2ccc(CN3CCOCC3)cc2[nH]1)NC1CC1 [AT9283] + Cc1cc(Nc2cc(N3CCN(C)CC3)nc(Sc3ccc(NC(=O)C4CC4)cc3)n2)n[nH]1 [Tozasertib] (partner 0.1 µM)
In short: as §1

Erlotinib + Palbociclib = compound: C#Cc1cccc(Nc2ncnc3cc(OCCOC)c(OCCOC)cc23)c1 [Erlotinib] + CC(=O)c1c(C)c2cnc(Nc3ccc(N4CCNCC4)cn3)nc2n(C2CCCC2)c1=O [Palbociclib] (partner 0.5 µM)
In short: as §1

Cell Line: LCLC-103H
- relative viability (Erlotinib + Pemetrexed; first compound 0.02 µM): 0.502
- relative viability (Erlotinib + Pemetrexed; first compound 0.2 µM): 0.449
- relative viability (Erlotinib + Pemetrexed; first compound 0.6325 µM): 0.476
- relative viability (Erlotinib + Pemetrexed; first compound 2 µM): 0.45
- relative viability (AT9283 + Bortezomib; first compound 0.003 µM): 1.08
- relative viability (AT9283 + Bortezomib; first compound 0.03 µM): 0.935
- relative viability (AT9283 + Bortezomib; first compound 0.09487 µM): 0.641
- relative viability (AT9283 + Bortezomib; first compound 0.3 µM): 0.538
- relative viability (Erlotinib + Foretinib; first compound 0.02 µM): 0.743
- relative viability (Erlotinib + Foretinib; first compound 0.2 µM): 0.799
- relative viability (Erlotinib + Foretinib; first compound 0.6325 µM): 0.848
- relative viability (Erlotinib + Foretinib; first compound 2 µM): 0.566
- relative viability (AT9283 + Tozasertib; first compound 0.003 µM): 0.45
- relative viability (AT9283 + Tozasertib; first compound 0.03 µM): 0.347
- relative viability (AT9283 + Tozasertib; first compound 0.09487 µM): 0.187
- relative viability (AT9283 + Tozasertib; first compound 0.3 µM): 0.259
- relative viability (Erlotinib + Palbociclib; first compound 0.02 µM): 0.503
- relative viability (Erlotinib + Palbociclib; first compound 0.2 µM): 0.429
- relative viability (Erlotinib + Palbociclib; first compound 0.6325 µM): 0.457
- relative viability (Erlotinib + Palbociclib; first compound 2 µM): 0.467

Cell Line: LOU-NH91
- relative viability (Erlotinib + Pemetrexed; first compound 0.02 µM): 0.448
- relative viability (Erlotinib + Pemetrexed; first compound 0.2 µM): 0.393
- relative viability (Erlotinib + Pemetrexed; first compound 0.6325 µM): 0.414
- relative viability (Erlotinib + Pemetrexed; first compound 2 µM): 0.371
- relative viability (AT9283 + Bortezomib; first compound 0.003 µM): 0.436
- relative viability (AT9283 + Bortezomib; first compound 0.03 µM): 0.447
- relative viability (AT9283 + Bortezomib; first compound 0.09487 µM): 0.438
- relative viability (AT9283 + Bortezomib; first compound 0.3 µM): 0.389
- relative viability (Erlotinib + Foretinib; first compound 0.02 µM): 0.519
- relative viability (Erlotinib + Foretinib; first compound 0.2 µM): 0.524
- relative viability (Erlotinib + Foretinib; first compound 0.6325 µM): 0.585
- relative viability (AT9283 + Tozasertib; first compound 0.003 µM): 0.61
- relative viability (AT9283 + Tozasertib; first compound 0.03 µM): 0.391
- relative viability (AT9283 + Tozasertib; first compound 0.09487 µM): 0.373
- relative viability (AT9283 + Tozasertib; first compound 0.3 µM): 0.388
- relative viability (Erlotinib + Palbociclib; first compound 0.02 µM): 0.564
- relative viability (Erlotinib + Palbociclib; first compound 0.2 µM): 0.546
- relative viability (Erlotinib + Palbociclib; first compound 0.6325 µM): 0.624
- relative viability (Erlotinib + Palbociclib; first compound 2 µM): 0.542

Cell Line: LU99A
- relative viability (Erlotinib + Pemetrexed; first compound 0.02 µM): 0.166
- relative viability (Erlotinib + Pemetrexed; first compound 0.2 µM): 0.196
- relative viability (Erlotinib + Pemetrexed; first compound 0.6325 µM): 0.16
- relative viability (Erlotinib + Pemetrexed; first compound 2 µM): 0.151
- relative viability (AT9283 + Bortezomib; first compound 0.003 µM): 1.04
- relative viability (AT9283 + Bortezomib; first compound 0.03 µM): 0.463
- relative viability (AT9283 + Bortezomib; first compound 0.09487 µM): 0.162
- relative viability (AT9283 + Bortezomib; first compound 0.3 µM): 0.229
- relative viability (Erlotinib + Foretinib; first compound 0.02 µM): 0.861
- relative viability (Erlotinib + Foretinib; first compound 0.2 µM): 0.833
- relative viability (Erlotinib + Foretinib; first compound 0.6325 µM): 0.829
- relative viability (Erlotinib + Foretinib; first compound 2 µM): 0.678
- relative viability (AT9283 + Tozasertib; first compound 0.003 µM): 0.268
- relative viability (AT9283 + Tozasertib; first compound 0.03 µM): 0.247
- relative viability (AT9283 + Tozasertib; first compound 0.09487 µM): 0.226
- relative viability (AT9283 + Tozasertib; first compound 0.3 µM): 0.222
- relative viability (Erlotinib + Palbociclib; first compound 0.02 µM): 0.466
- relative viability (Erlotinib + Palbociclib; first compound 0.2 µM): 0.421
- relative viability (Erlotinib + Palbociclib; first compound 0.6325 µM): 0.38
- relative viability (Erlotinib + Palbociclib; first compound 2 µM): 0.327

Cell Line: LXF-289
- relative viability (Erlotinib + Pemetrexed; first compound 0.02 µM): 0.908
- relative viability (Erlotinib + Pemetrexed; first compound 0.6325 µM): 0.819
- relative viability (Erlotinib + Pemetrexed; first compound 2 µM): 0.783
- relative viability (AT9283 + Bortezomib; first compound 0.003 µM): 0.972
- relative viability (AT9283 + Bortezomib; first compound 0.03 µM): 0.992
- relative viability (AT9283 + Bortezomib; first compound 0.09487 µM): 0.184
- relative viability (AT9283 + Bortezomib; first compound 0.3 µM): 0.131
- relative viability (Erlotinib + Foretinib; first compound 0.02 µM): 0.924
- relative viability (Erlotinib + Foretinib; first compound 0.2 µM): 0.937
- relative viability (Erlotinib + Foretinib; first compound 2 µM): 0.874
- relative viability (AT9283 + Tozasertib; first compound 0.003 µM): 0.2
- relative viability (AT9283 + Tozasertib; first compound 0.03 µM): 0.127
- relative viability (AT9283 + Tozasertib; first compound 0.09487 µM): 0.0989
- relative viability (AT9283 + Tozasertib; first compound 0.3 µM): 0.0888
- relative viability (Erlotinib + Palbociclib; first compound 0.02 µM): 0.583
- relative viability (Erlotinib + Palbociclib; first compound 0.2 µM): 0.566
- relative viability (Erlotinib + Palbociclib; first compound 0.6325 µM): 0.531
- relative viability (Erlotinib + Palbociclib; first compound 2 µM): 0.539
